Data as given in patent US20250017891A1, “PHARMACEUTICAL COMPOSITION COMPRISING CABAZITAXEL PRODRUG-CYCLODEXTRIN INCLUSION COMPLEX, AND APPLICATIONS THEREOF” (TWI PHARMACEUTICALS, INC., priority 2023, published 2025).
Several values for one entry are separate records, joined by “and”; a condition that tells them apart may be missing. Equal values may be shown once. Read-outs that look alike come from different tables or passages of the source.

What was measured:
[1] = even in the mixed solvent of water and organic reagent; cited from earlier work
[2] = In vivo bioconversion of CBT succinate in 50% PEG300 formulation, IV, mouse plasma by LC-MS/MS; design: species or system ICR male mice; conditions: 15 mg/kg IV
Procedure: The bioanalysis results are tabulated as Tables 1 to 3 below. The values of mean and standard deviation (SD) are calculated. BLOQ means “below the limit of quantification”, and N/A means “not available”. Normal saline used herein is 0.90% sodium chloride aqueous solution.
C0: Initial concentration; • 3. […] AUC/D: AUC divided by dose; • 6.

[3] = Saturation test of CBT succinate-SBECD (1:2.2), solubility; assay type: physicochemical; conditions: aqueous buffer, thermodynamic from solid, excess complex dissolved by 20 mM pH 8.0 phosphate buffer, read-out: CBT succinate water solubility
Description: For the CBT succinate-SBECD (1:2.2), a saturation test was further carried out.

[4] = Hydrolysis of CBT succinate dissolved in the aqueous preclinical formulation; assay type: physicochemical; conditions: 50% PEG300 in normal saline
[5] = analyte Cabazitaxel in mouse plasma, CBT succinate in 50% PEG300 formulation, time 24 h
[6] = male, ICR, mouse plasma, CBT succinate in 50% PEG300 formulation
[7] = mouse plasma, CBT succinate in 50% PEG300 formulation
[8] = mouse plasma, CBT succinate in 50% PEG300 formulation, time 4 h
[9] = mouse plasma, CBT succinate in 50% PEG300 formulation, time 8 h
[10] = mouse plasma, CBT succinate in 50% PEG300 formulation, time 24 h

For `CO[C@H]1C(=O)[C@]2(C)[C@@H](OC)C[C@H]3OC[C@@]3(OC(C)=O)[C@H]2[C@H](OC(=O)c2ccccc2)[C@]2(O)C[C@H](OC(=O)[C@H](O)[C@@H](NC(=O)OC(C)(C)C)c3ccccc3)C(C)=C1C2(C)C` [cabazitaxel], which solubility [1] is on record?
Its solubility is “almost insoluble”.

For `CO[C@H]1C(=O)[C@]2(C)[C@@H](OC)C[C@H]3OC[C@@]3(OC(C)=O)[C@H]2[C@H](OC(=O)c2ccccc2)[C@]2(O)C[C@H](OC(=O)[C@H](OC(=O)CCC(=O)O)[C@@H](NC(=O)OC(C)(C)C)c3ccccc3)C(C)=C1C2(C)C` [CBT succinate, cabazitaxel succinate], which “CBT concentration (individual mouse)” value ([2]; analyte Cabazitaxel in mouse plasma, CBT succinate in 50% PEG300 formulation, time 8 h, 15 mg/kg) is on record?
The value was “BLOQ”.

And the “CBT concentration (individual mouse)” value [2, 5]?
Its value is “BLOQ”.

What about the “CBT concentration, Mean” value [2, 5] of the same molecule?
Its value is “BLOQ”.

What about the concentration at 0.083 h ([2]; male, ICR, mouse, plasma, iv, 15 mg/kg, mouse plasma, CBT succinate in 50% PEG300 formulation, time 0.083 h, read-out: CBT succinate concentration (individual mouse)) of the same molecule?
Its concentration at 0.083 h is 5980 ng/mL.

And the concentration at 0.083 h ([2]; male, ICR, mouse, plasma, iv, 15 mg/kg, mouse plasma, CBT succinate in 50% PEG300 formulation, time 0.083 h, read-out: CBT succinate concentration, Mean)?
Its concentration at 0.083 h is 5750 ng/mL.

And the concentration at 0.167 h ([2]; male, ICR, mouse, plasma, iv, 15 mg/kg, mouse plasma, CBT succinate in 50% PEG300 formulation, time 0.167 h, read-out: CBT succinate concentration (individual mouse))?
The concentration at 0.167 h was 3100 ng/mL.

What about the concentration at 0.167 h ([2]; male, ICR, mouse, plasma, iv, 15 mg/kg, mouse plasma, CBT succinate in 50% PEG300 formulation, time 0.167 h, read-out: CBT succinate concentration, Mean) of the same molecule?
The concentration at 0.167 h was 3030 ng/mL.

And the concentration at 0.5 h ([2]; male, ICR, mouse, plasma, iv, 15 mg/kg, mouse plasma, CBT succinate in 50% PEG300 formulation, time 0.5 h)?
Its concentration at 0.5 h is 386 ng/mL.

What about the concentration at 1 h ([2]; male, ICR, mouse, plasma, iv, 15 mg/kg, mouse plasma, CBT succinate in 50% PEG300 formulation, time 1 h) of the same molecule?
The concentration at 1 h was 50 ng/mL.

And the concentration at 2 h ([2]; male, ICR, mouse, plasma, iv, 15 mg/kg, mouse plasma, CBT succinate in 50% PEG300 formulation, time 2 h, read-out: CBT succinate concentration (individual mouse))?
Its concentration at 2 h is 15 ng/mL.

And the concentration at 2 h ([2]; male, ICR, mouse, plasma, iv, 15 mg/kg, mouse plasma, CBT succinate in 50% PEG300 formulation, time 2 h, read-out: CBT succinate concentration, Mean)?
The concentration at 2 h was 15 ng/mL.

And the C0 [2, 6]?
Its C0 is 10800 ng/mL.

What about the MRT [2, 6] of the same molecule?
The MRT was 9.6 min.

What about the AUC(0-inf) ([2]; male, ICR, mouse plasma, CBT succinate in 50% PEG300 formulation, read-out: AUCInf of CBT Succinate) of the same molecule?
Its AUC(0-inf) is 1770 ng·h/mL.

And the AUC(0-t) ([2]; male, ICR, mouse plasma, CBT succinate in 50% PEG300 formulation, read-out: AUClast of CBT Succinate)?
Its AUC(0-t) is 1770 ng·h/mL.

And the clearance ([2]; male, ICR, mouse plasma, CBT succinate in 50% PEG300 formulation, read-out: CL of CBT Succinate)?
The clearance was 141 mL/min/kg.

What about the Vd ([2]; male, ICR, mouse plasma, CBT succinate in 50% PEG300 formulation, read-out: Vss of CBT Succinate) of the same molecule?
Its Vd is 1.38 L/kg.

What about the half-life ([2]; male, ICR, mouse plasma, CBT succinate in 50% PEG300 formulation, read-out: t1/2 of CBT Succinate (converted)) of the same molecule?
The half-life was 13.8 min.

And the “bioconversion of CBT succinate to CBT” value ([2]; mice, 50% PEG300 formulation)?
The value was “very rapidly”.

And the “AUC Extr of CBT Succinate” value [2, 7]?
The value was 0.28%.

What about the “AUC/D of CBT Succinate” value [2, 7] of the same molecule?
The value was 118 kg·ng·h/mL/mg.

What about the “CBT succinate concentration (individual mouse)” value ([2]; mouse plasma, CBT succinate in 50% PEG300 formulation, time 0.083 h, 15 mg/kg) of the same molecule?
The value was 5803 ng/mL and 5480 ng/mL.

And the “CBT succinate concentration (individual mouse)” value ([2]; mouse plasma, CBT succinate in 50% PEG300 formulation, time 0.167 h, 15 mg/kg)?
The value was 3144 ng/mL and 2857 ng/mL.

What about the “CBT succinate concentration (individual mouse)” value ([2]; mouse plasma, CBT succinate in 50% PEG300 formulation, time 0.5 h, 15 mg/kg) of the same molecule?
Its value is 541 ng/mL and 397 ng/mL and 221 ng/mL.

And the “CBT succinate concentration (individual mouse)” value ([2]; mouse plasma, CBT succinate in 50% PEG300 formulation, time 1 h, 15 mg/kg)?
Its value is 25 ng/mL and 51 ng/mL and 73 ng/mL.

And the “CBT succinate concentration (individual mouse)” value ([2]; mouse plasma, CBT succinate in 50% PEG300 formulation, time 2 h, 15 mg/kg)?
Its value is “BLOQ”.

And the “CBT succinate concentration (individual mouse)” value [2, 8]?
The value was “BLOQ”.

What about the “CBT succinate concentration, Mean” value [2, 8] of the same molecule?
The value was “BLOQ”.

What about the “CBT succinate concentration (individual mouse)” value [2, 9] of the same molecule?
The value was “BLOQ”.

What about the “CBT succinate concentration, Mean” value [2, 9] of the same molecule?
Its value is “BLOQ”.

What about the “CBT succinate concentration (individual mouse)” value [2, 10] of the same molecule?
The value was “BLOQ”.

And the “CBT succinate concentration, Mean” value [2, 10]?
Its value is “BLOQ”.

And the solubility [3]?
The solubility was 120 µg/mL.

What about the “hydrolysis when dissolved in the aqueous preclinical formulation” value [4] of the same molecule?
The value was “prone to hydrolysis”.
